Target: PDE V (Homo sapiens, UniProt O76074)
Assay: PDE V enzyme inhibition (PDE V IC50)
Assay type: biochemical

| IC50 [nM] | Compound |
| --- | --- |
| 15 to 100 | COc1ccc(Cn2c(NC3CCCC3CO)nc3c2c(=O)n(C)c(=O)n3C)cc1 (centres unmarked) [Compound 13] |
| 5 to 10 | COc1ccc(Cn2c(N[C@@H]3CCc4ccccc43)nc3c2c(=O)n(C)c(=O)n3C)cc1 [Compound 95] |

— patent US7531544B2, “Xanthine phosphodiesterase V inhibitors” (Schering Corporation, priority 2000, dated 2009)
